# Experimental data taken from PMC8443696, “Structural determinants and regulation of spontaneous activity in GABAA receptors” (Nature Communications, 2021).
# Where “and” joins values, the source holds several entries; their conditions need not be identical. Identical values can stand only once. Like-named read-outs stand apart in the source and are kept apart here.
# What was measured:
# [1] = system: T1, α4β3 receptors; experiment: Agonist-evoked whole-cell currents and their modulation by Zn2+ / DS2 in HEK cells; format: cell-based, mouse; set-up: GABA current, Supp. Fig. 2b / GABA + DS2 current, Supp. Fig. 2b / GABA current, Supp. Fig. 2a: unit not given here; settings: GABA with DS2, individual cells
# T1 construct: expressed in transfected cells; host or cells: HEK 293
# From the text: (§1) All components were obtained from Life Technologies.
# (§2) Currents were acquired with Clampex ver.
# (§3) Cells were voltage clamped at −40 mV.
# [2] = target: T2, α4β3δ receptors (UniProt P18506+P63080+Q9D6F4); experiment: as above; format: cell-based, mouse
# T2 construct: expressed in transfected cells; host or cells: HEK 293
# T2 sequence (Q9D6F4 36-552): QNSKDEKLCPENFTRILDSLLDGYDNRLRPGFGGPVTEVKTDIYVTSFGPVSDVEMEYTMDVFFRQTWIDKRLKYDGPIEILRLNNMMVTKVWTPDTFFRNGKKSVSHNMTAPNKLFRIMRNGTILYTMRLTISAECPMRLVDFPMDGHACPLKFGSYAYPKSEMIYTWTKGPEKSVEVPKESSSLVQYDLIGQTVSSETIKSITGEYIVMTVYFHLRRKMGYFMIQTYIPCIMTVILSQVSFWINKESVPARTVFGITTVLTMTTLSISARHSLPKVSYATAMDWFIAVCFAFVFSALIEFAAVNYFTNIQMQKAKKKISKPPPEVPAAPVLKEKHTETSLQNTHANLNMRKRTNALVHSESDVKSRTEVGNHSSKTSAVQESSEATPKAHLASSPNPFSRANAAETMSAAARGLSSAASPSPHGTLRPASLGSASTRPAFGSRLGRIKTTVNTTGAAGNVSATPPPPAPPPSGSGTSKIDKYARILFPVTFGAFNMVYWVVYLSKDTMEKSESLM
# T2 sequence (P63080 26-473): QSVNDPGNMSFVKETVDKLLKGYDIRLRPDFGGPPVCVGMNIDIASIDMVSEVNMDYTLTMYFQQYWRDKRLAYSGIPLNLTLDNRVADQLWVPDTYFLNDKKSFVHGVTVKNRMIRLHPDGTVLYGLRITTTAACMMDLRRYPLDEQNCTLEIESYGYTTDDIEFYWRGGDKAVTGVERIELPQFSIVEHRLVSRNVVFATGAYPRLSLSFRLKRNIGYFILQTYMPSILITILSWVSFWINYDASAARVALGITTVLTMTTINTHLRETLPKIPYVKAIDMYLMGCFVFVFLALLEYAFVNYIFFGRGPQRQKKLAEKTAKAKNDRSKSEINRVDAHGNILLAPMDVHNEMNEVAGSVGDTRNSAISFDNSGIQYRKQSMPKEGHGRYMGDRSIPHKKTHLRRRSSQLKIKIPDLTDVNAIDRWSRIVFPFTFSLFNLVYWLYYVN
# T2 sequence (P18506 25-449): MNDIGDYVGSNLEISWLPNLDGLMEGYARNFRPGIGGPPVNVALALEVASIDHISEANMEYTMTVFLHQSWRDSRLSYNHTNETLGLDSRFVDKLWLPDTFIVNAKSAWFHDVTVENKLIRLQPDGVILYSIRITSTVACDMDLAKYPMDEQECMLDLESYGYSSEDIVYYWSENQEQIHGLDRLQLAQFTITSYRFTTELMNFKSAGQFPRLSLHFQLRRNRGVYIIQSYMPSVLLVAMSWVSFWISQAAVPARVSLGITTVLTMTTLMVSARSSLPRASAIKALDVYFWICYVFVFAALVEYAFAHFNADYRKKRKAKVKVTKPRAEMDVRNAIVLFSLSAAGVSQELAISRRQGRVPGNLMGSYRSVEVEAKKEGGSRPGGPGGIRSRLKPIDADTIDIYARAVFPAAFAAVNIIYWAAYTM
# From the text: as §1, §2, §3
# [3] = system: α4β3δ receptors; format: cell-based, mouse; set-up: spontaneous activity, Supp. Fig. 3e: unit not given here; settings: for Ispont during staurosporine application: 200 nM staurosporine
# From the text: as §1, §2, §3
# (§4) For assessment of the efficacy of allosteric modulators on spontaneous activity, compounds were briefly applied (3–5 s) to achieve steady-state currents (IMod). […] The IMod was summed with IPTX (or subtracted for inhibitory modulators) and the Ispont calculated, as described by Eq. (2):2 Ispont(%)=[(IPTX+IMod)/(IPTX+IMax)]×100……………………………………
# [4] = system: cultured hippocampal neurons; experiment: Voltage clamp of spontaneous/tonic GABAAR currents in transfected cultured hippocampal neurons; format: cell-based, rat; settings: for spontaneous/tonic current, Supp. Fig. 4e: concanamycin treated (vs control), individual cells; for Effect on holding current: gabazine 1 μM
# Procedure: This media was replaced 2 h later with neurobasal-A media supplemented with 1% v/v B-27, 50 units/ml penicillin-G, 50 µg/ml streptomycin, 0.5% v/v glutamax and 35 mM glucose. These cells were transfected 6–8 days later using either the calcium phosphate protocol described above, or Effectene with a protocol as described by the manufacturer (Qiagen) using a total 0.8 μg of cDNA per coverslip. […] Neurons were used for electrophysiological recording or confocal imaging 5–9 days later.
# as §2
# (§5) Recordings from hippocampal cultures used ~3–5 MΩ electrodes filled with an internal solution consisting of (mM): 140 CsCl, 2 NaCl, 10 HEPES, 5 EGTA, 2 MgCl2, 0.5 CaCl2, 2 Na2ATP, 0.5 Na2GTP, 2 QX-314, pH 7.3. Osmolarity was 300 ± 20 mOsm/L. Cells were perfused in the same Kreb’s solution described above, except for the addition of 2 mM kynurenic acid. Cells were voltage clamped at −60 mV. For current clamp, cells were recorded using an internal electrode solution consisting of (mM): 137 potassium gluconate, 3 KCl, 10 HEPES, 5 EGTA, 0.5 CaCl2, 2 MgCl2, 2 Na2ATP and 0.5 Na2GTP, pH 7.3. Osmolarity was 300 ± 20 mOsm/L. The external solution was as described for voltage-clamp experiments and the calculated junction potential was ~15 mV. Current was injected to hold cells at −70 mV if required. For slice recordings, slices were perfused in the aCSF described above, and the internal solution was the same as that used for cultured neuronal voltage-clamp recordings.
# [5] = target: T2, α4β3δ receptors; format: cell-based, mouse; set-up: spontaneous activity, Supp. Fig. 3e: unit not given here; settings: for Ispont in the presence of modulator: α4β3δ, PS 10 µM (Fig. 6c)
# From the text: as §1, §2, §3, §4
# [6] = system: dentate gyrus granule cells (DGGCs); experiment: Tonic current in acute hippocampal brain slices; format: cell-based, rat; settings: for Change in holding current: DGGCs;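 on tonic current change with +PTX, Fig. 10a: Holding current density change on antagonist application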;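 on tonic current change with Gabazine, Fig. 10a: Holding current density change on antagonist application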
# From the text: (§6) Adolescent male rats (P21–P28) were anaesthetised by inhalation with 5% isoflurane before dispatch and isolation of the brain in accordance with the United Kingdom Animals (Scientific Procedures) Act 1986. The brain was immersed in an ice-cold slicing solution containing (mM): 85 NaCl, 2.5 KCl, 1.25 NaH2PO4, 26 NaHCO3, 75 sucrose, 1 CaCl2, 4 MgCl2, 25 glucose and 2 kynurenic acid, (pH 7.4 when bubbled with 95% O2/5% CO2). Horizontal (hippocampal) and coronal (thalamic) sections (all 350 µm thick) were cut using a Leica VT1200S vibratome before transfer to a holding chamber at 37 °C. The solution was slowly exchanged over 1 h with aCSF containing (mM): 125 NaCl, 2.5 KCl, 1.25 NaH2PO4, 26 NaHCO3, 2 CaCl2, 1 MgCl2, 25 glucose and 2 kynurenic acid (pH 7.4 when bubbled with 95% O2/5% CO2) before maintaining the slices at room temperature prior to recording.
# as §2, §5
# [7] = system: dorsal lateral geniculate nucleus (dLGN) thalamic relay neurons; experiment: Tonic current in acute thalamic brain slices; format: cell-based, rat;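 on tonic current change with +PTX, Fig. 10b: Holding current density change on antagonist application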;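 on tonic current change with Gabazine, Fig. 10b: Holding current density change on antagonist application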
# From the text: as §6, §2, §5
# [8] = system: β3 homomeric receptors
# Procedure: HEK 293 cells were maintained in Dulbecco’s modified Eagle’s medium supplemented with 10% v/v heat-inactivated fetal calf serum, 100 units/ml penicillin-G and 100 µg/ml streptomycin and incubated at 37 °C in humidified 95% air/5% CO2. […] Cells were maintained within a passage range of P12–35. Dissociated HEK cells were plated onto 22 mm glass coverslips (VWR) coated in poly-L-lysine (Sigma). Cells were transfected >1 h later using a calcium phosphate protocol whereby a transfection solution was prepared consisting of 20 μl of 340 mM CaCl2, 24 μl of 2× HBS (50 mM HEPES, 280 mM NaCl, 2.8 mM Na2HPO4) and 4 μg cDNA per coverslip. […] Cells were recorded from 24–48 h later.
# For all electrophysiological experiments, cells were visualised using a Nikon Eclipse E600FN microscope. Whole-cell currents were recorded using an Axopatch 200B amplifier and digitised using a Digidata 1322 A (Axon Instruments). […]
# HEK cells were recorded from using borosilicate glass electrodes with resistances ~3–5 MΩ when filled with an internal solution containing (mM): 1 MgCl2, 140 KCl, 11 EGTA, 10 HEPES, 1 CaCl2, 2 K2ATP, pH 7.2. Osmolarity was 300 ± 20 mOsm/L, measured using a vapour pressure osmometer (Model 5520, Wescor Inc). […]
# [9] = system: T3, α4β3^S408A,S409Aδ receptors; experiment: Quantification of spontaneous activity (Ispont) in HEK cells, whole-cell patch clamp; format: cell-based, mouse; settings: for Ispont during staurosporine application: α4β3S408A,S409Aδ, 200 nM staurosporine, individual cells
# T3 construct: expressed in transfected cells; host or cells: HEK 293
# From the text: as §1, §2, §3
# [10] = system: T4, α4β3^S408D,S409Dδ receptors; experiment: as above; format: cell-based, mouse; settings: for Ispont during staurosporine application: α4β3S408D,S409Dδ, 200 nM staurosporine, individual cells
# T4 construct: expressed in transfected cells; host or cells: HEK 293
# From the text: as §1, §2, §3
# [11] = system: T5, α4β3δ GABAARs; experiment: Single-channel recording of spontaneous currents, outside-out patches of HEK cells; format: cell-based, mouse; settings: 100 μM PTX, absence of GABA
# T5 construct: expressed in transfected cells; host or cells: HEK cells (outside-out patches)
# Procedure: To limit ion channel density in individual patches, HEK cells were transfected with 5 ng α4, β3, δ and eGFP cDNAs. Resulting spontaneous single-channel currents were digitised at a sampling rate of 20 kHz and filtered at 5 kHz with a 4-pole Bessel filter (24 dB per octave). A fixed time resolution of 80 μs was used as a preset. Recordings were undertaken using thick-walled borosilicate patch pipettes (6–10 MΩ) filled with a solution containing (mM): 145 CsCl, 2.5 NaCl, 10 HEPES, 1 EGTA, 4 MgATP, pH 7.3. Osmolarity was 300 ± 20 mOsm/L. Cells were perfused with an external solution consisting of (mM): 145 NaCl, 2.5 KCl, 1 CaCl2, 1 MgCl2, 10 HEPES, 10 glucose, pH 7.3. Prior control recordings were obtained using untransfected HEK cells to identify endogenous channel currents.
# Channel currents were digitally low pass filtered at 1–2 kHz prior to analysis. […] Channel dwell states were identified using a threshold cursor method. This state transition detection method for open and shut events was used to assemble an idealised record of the digitised data. Open times affected by channel stacking were not included in the analyses and sub-conductance states were also rare and excluded from the analysis.
# The analysis of the dwell times for single-channel currents was performed by fitting a mixture of exponential components to the open time distributions. These defined the mean open times and their relative proportions (area of the components) based on using a Levenberg-Marquardt non-linear least-squares routine (WinEDR ver 3.8.7, courtesy of J Dempster, University of Strathclyde).
# [12] = system: T6, α4^Q246Mβ3δ receptors; experiment: Quantification of spontaneous activity (Ispont) in HEK cells, whole-cell patch clamp; format: cell-based, mouse; settings: α4Q246Mβ3δ, PS 10 µM (Fig. 6c)
# T6 construct: expressed in transfected cells; host or cells: HEK 293
# From the text: as §1, §2, §3, §4
# [13] = system: T7, α4β3^S409Aδ receptors; experiment: as above; format: cell-based, mouse; settings: α4β3S409Aδ, PS 10 µM (Fig. 6c)
# T7 construct: expressed in transfected cells; host or cells: HEK 293
# From the text: as §1, §2, §3, §4
# [14] = eGFP- and β3-expressing neurons, concanamycin A 0.5 μM
# [15] = Gabazine alone, individual cells
# [16] = PTX added after Gabazine, individual cells
molecule,measurement,setting,value
O=C(Nc1c(-c2cccs2)nc2ccccn12)c1ccc(Cl)cc1 [DS2],"GABA + DS2 current, Supp. Fig. 2b",[1],0.04 and 0.14 and 0.11 and 0.09 and 0.26
same,Effect on 0.3 μM GABA responses,[2]; DS2 5 μM,potentiated
same,"GABA + DS2 current, Supp. Fig. 2b","[2]; GABA with DS2, individual cells",1.82 and 1.25 and 0.43 and 1.45 and 3.44
CN([C@@H](Cc1ccc(OS(=O)(=O)c2cccc3cnccc23)cc1)C(=O)N1CCN(c2ccccc2)CC1)S(=O)(=O)c1cccc2cnccc12 [KN-62],"spontaneous activity, Supp. Fig. 3e","[3]; KN-62 treated (vs control), individual cells",9.722 and 13.6922 and 18.602 and 3.467 and 9.093 and 9.783 and 14.5969 and 3.449 and 5.659
same,Effect on Ispont of internally applied CaMKII inhibitor,"[3]; α4β3δ, KN-62 3 µM internal",no effect
CN(C)CCCn1cc(C2=C(c3c[nH]c4ccccc34)C(=O)NC2=O)c2ccccc21 [bisindolylmaleimide-I],Ispont with PKC inhibitor in the patch electrode solution,"[3]; α4β3δ, Bis-I 200 nM internal, 2 min dialysis (Fig. 5e)",significantly reduced
C/C=C/[C@H]1O[C@@](O)([C@@H](C)[C@H](O)[C@H](C)[C@H]2OC(=O)/C(OC)=C/C(C)=C/[C@@H](C)[C@@H](O)[C@@H](CC)[C@@H](O)[C@H](C)C/C(C)=C/C=C/[C@@H]2OC)C[C@@H](O[C@H]2C[C@@H](O)[C@H](OC(N)=O)[C@@H](C)O2)[C@@H]1C [concanamycin A],"spontaneous/tonic current, Supp. Fig. 4e",[4]; eGFP neurons,1.043 and 0.1205 and 0.1429 and 0.1839 and 0.303 and 0.1613 and 0.3626 and 0.3579
same,Effect on IPSCs,[4]; [14],abolished
same,Effect on PTX-sensitive spontaneous currents,[4]; [14],without affecting
same,"spontaneous/tonic current, Supp. Fig. 4e",[4]; β3 neurons,1.595 and 1.13 and 1.667 and 1.221 and 1.725 and 1.692
COc1ccc(-c2ccc(=N)n(CCCC(=O)O)n2)cc1 [gabazine],Effect on spontaneous holding current,"[5]; cells expressing α4, β3 and δ, gabazine 1 µM",behaved as an inverse agonist
same,Effect on holding current,[4]; eGFP-transfected neurons,small agonist effect
same,Effect on holding current,[4]; β3-transfected neurons,partial antagonism
same,Change in holding current,[6]; gabazine 20 µM,small increments in holding current
same,"tonic current change with Gabazine, Fig. 10a",[6]; [15],-0.04645 and -0.07728 and -0.0199 and 0.08319 and 0 and -0.01133 and -0.01699 and -0.02885 and -0.01144
same,"tonic current change with Gabazine, Fig. 10b",[7]; [15],0.2002 and 0.032 and 0.025 and 0.02996 and 0.07463 and 0.08562 and 0.04525 and 0.03574 and -0.03067 and 0.01818
same,Effect on tonic current,"[7]; dLGN thalamic relay neurons, gabazine 20 µM",part-inhibited
same,Effect on spontaneous holding current,"[8]; β3 alone, gabazine 1 µM",but not with β3 alone
CCCC(C)C1(CC)C(=O)NC(=O)NC1=O (stereo not drawn) [pentobarbital],Whole-cell current evoked by pentobarbital,"[8]; β3, 100 µM pentobarbital, n = 11",220 ± 94 pA
CN[C@@H]1C[C@H]2O[C@@](C)([C@@H]1OC)n1c3ccccc3c3c4c(c5c6ccccc6n2c5c31)C(=O)NC4 [staurosporine],Ispont during staurosporine application,"[3]; α4β3δ, time 1 min, individual cells",decreased significantly and 13.2% and 6.4% and 6.3%
same,Ispont during staurosporine application,"[3]; α4β3δ, time 10 min, individual cells",9.3% and 12.3% and 3.2% and 4.6%
same,Ispont during staurosporine application,"[3]; α4β3δ, time 20 min, individual cells",7.5% and 8% and 2.3% and 3.8%
same,Effect on Ispont over 20 min compared to control,"[9]; phospho-null α4β3^S408A,S409Aδ, staurosporine 200 nM",no effect
same,Ispont during staurosporine application,[9]; time 1 min,7.3% and 8.9% and 6.5% and 29.4%
same,Ispont during staurosporine application,[9]; time 10 min,5.4% and 6.9% and 9.5% and 5.6% and 26.6%
same,Ispont during staurosporine application,[9]; time 20 min,5.7% and 5.8% and 7.2% and 5%
same,Effect on Ispont over 20 min compared to control,"[10]; phosphomimetic α4β3^S408D,S409Dδ, staurosporine 200 nM",no effect
same,Ispont during staurosporine application,[10]; time 1 min,12.5% and 12.6%
same,Ispont during staurosporine application,[10]; time 10 min,11.9% and 9.4% and 7.9%
same,Ispont during staurosporine application,[10]; time 20 min,8.8% and 8.7% and 7.1%
"PKA inhibitor peptide 14–22: selective PKA inhibitor peptide (GRTGRRNAI; UniProt P61925 15-23, looked up, fragment)",Ispont with PKA inhibitor in the patch electrode solution,"[3]; α4β3δ, PKI 1 μM internal, 2 min dialysis (Fig. 5d)",significantly reduced
picrotoxin [PTX],Effect on spontaneous single-channel currents,[11],blocked
same,Change in holding current,[6]; PTX 100 μM after gabazine,large reduction in holding current
same,"tonic current change with +PTX, Fig. 10a",[6]; [16],0.1792 and 0.4018 and 0.1492 and 0.2163 and 0.07528 and 0.1359 and 0.2209 and 0.2596 and 0.5835
same,"tonic current change with +PTX, Fig. 10b",[7]; [16],0.2529 and 0.032 and 0.04 and 0.1019 and 0.1492 and 0.1027 and 0.03878 and 0.06433 and 0.1595 and 0.03636
same,Effect on residual tonic current,"[7]; dLGN thalamic relay neurons, PTX 100 μM after gabazine",blocked
pregnenolone sulphate [Pregnenolone sulfate],Ispont in the presence of modulator,[5],reduced
same,Ispont in the presence of modulator,[5]; listed as PS,5.825% and 4.865% and 6.452% and 3.37% and 4.547% and 9.251% and 6.244% and 4.926%
same,Ispont in the presence of modulator,[12],reduced
same,Ispont in the presence of modulator,[12]; listed as PS,3.665% and 9.322% and 7.162% and 6.1828% and 3.237% and 4.8719% and 4.011%
same,Ispont in the presence of modulator,[13],reduced
same,Ispont in the presence of modulator,[13]; listed as PS,0.7651% and 0.3749% and 0.1269% and 0.9165% and 2.143% and 0.1295% and 1.652%
